Experimental data reported in patent US12121522B2, “Methods of treating cancer with an mTOR inhibitor” (Revolution Medicines, Inc., priority 2022, dated 2024).
Values joined by “and” are separate entries in the source; they are usually repeats but may differ in a detail not shown here. Identical values can stand only once.

Key:
4EBP3 mRNA expression = 4EBP3 mRNA expression in whole blood; type: in vivo, human; details: cohorts treated with at least 3.0 mg; sustained over a 6-hour period
Source text: Whole blood was collected from all subjects in dose escalation at CID1 prior to dosing, and 6 timepoints after EOI. In each sample, 4EBP3 mRNA expression was quantified as a pharmacodynamic indicator of mTORC1 inhibition.

[1] = system: advanced relapsed/refractory solid tumors; experiment: Clinical efficacy (RECIST v1.1), study RMC-5552-001; type: in vivo, human
Protocol: Refer to FIG. 7 for a waterfall plot of best response in subjects treated at majority dose of 6 mg or 8 mg IV weekly (one hour infusion).
Subjects were evaluated at doses of 6 mg and higher. […] One patient discontinued treatment due to clinical progression without post-baseline scans. Three patients experienced radiographic progressive disease (PD).

[2] = system: BLC1521 TSC1 protein-negative bladder cancer; experiment: BLC1521 bladder cancer xenograft; type: in vivo, mouse
Protocol: The antitumor activity of RMC-5552 as a single agent against tumors predicted to be dependent on the mTOR pathway and/or bearing specific PI3K/mTOR pathway-activating mutations (i.e., PIK3CA^mut, phosphatase and tensin homolog [PTEN^LOF], or co-mutation of both and tuberous sclerosis complex [TSC^LOF]) was evaluated in selected CDX and/or PDX models
Table 1. RMC-5552 was administered IP once weekly at 1, 3, 10, and 30 mg/kg. In the breast cancer MCF7 PIK3CA^[…] model, a higher dose of 50 mg/kg once weekly and an alternate dose regimen of 30 mg/kg every 10 days were also evaluated.

[3] = 13 efficacy-evaluable patients at ≥6 mg
[4] = 27 efficacy-evaluable subjects, majority doses 6 mg or 8 mg IV weekly
[5] = endometrial PIK3CA, PTEN, TSC2, 8 mg QW
[6] = uterine CaSarc TSC1 LOF, 10 mg single dose, 6 mg QW

## CO[C@H]1C[C@@H]2CC[C@@H](C)[C@@](O)(O2)C(=O)C(=O)N2CCCC[C@H]2C(=O)O[C@H]([C@H](C)C[C@@H]2CC[C@@H](OC(=O)NCCOCCOCCOCCOCCOCCOCCOCCOCCC(=O)N3CCc4cc(Cn5nc(-c6ccc7oc(N)nc7c6)c6c(N)ncnc65)ccc4C3)[C@H](OC)C2)C[C@@H](O)[C@H](C)/C=C(\C)[C@@H](O)[C@@H](OC)C(=O)[C@H](C)C[C@H](C)/C=C/C=C/C=C/1C [RMC-5552]
4EBP3 mRNA expression
  4EBP3 mRNA expression in whole blood: increased from baseline
[1]; [3]
  best response of stable disease (SD), subjects: 8
  confirmed partial response (PR), subjects: 1
  discontinued due to clinical progression without post-baseline scans, patients: One
  radiographic progressive disease (PD), patients: Three
[1]; [4]
  Disease Control Rate (DCR): 74.1%
  subjects with confirmed partial response: one
  subjects with stable disease as best response: 19
[1]; 67F NSCLC STK11, TSC2, KRAS L19F, 8 mg QW
  RECIST reduction: 4% reduction
[1]; 76F NSCLC BRAF fusion, 10 mg single dose, 6 mg QW
  RECIST reduction: 22%
[1]; H&N (salivary gland) cancer, PTEN mutation, 12 mg single dose then 6 mg QW
  reduction in sum of target lesions (RECIST), subject with confirmed PR: 77.6% and 77%
[1]; cancer with PTEN mutation
  subjects with Partial Response (PR): 1
[1]; [5]
  CA125, nadir: to nadir of 254; 9+ months
  CA125, peak: CA125 from peak of 1465
  RECIST reduction: 7% reduction
[1]; head and neck cancer, PTEN mutation
  subjects with Partial Response (PR): 1
[1]; ovarian CA TSC1 LOF, 6 mg QW
  RECIST increase (mixed): 19% increase
  reduction in CA125: 72% reduction in CA125
  reduction in FDG avidity by PET/CT: Strong: 50% reduction in
[1]; salivary gland cancer
  reduction in tumor size, 1 subject: 63%
[1]; [6]
  RECIST reduction: 4.4%
  reduction in CA125: Strong: 37% reduction in
[2]; 3 mg/kg IP QW
  TGI: 94%
[2]; 10 mg/kg IP QW
  tumor regression: 45% regression
